Here are results for 32 substances from paper PMC7367873, “Dissecting the sequence determinants for dephosphorylation by the catalytic subunits of phosphatases PP1 and PP2A” (Nature Communications, 2020).

Experiment [1] concerns GFP-14-3-3β and its binding proteins. The experiment can be described thus: GFP-14-3-3β co-IP with LC-MS/MS label-free quantification, untreated versus PP1c-treated. The arrangement: species or system human. The method, then: (§1) HeLa Kyoto cells expressing transiently transfected pEGFP(C1)-14-3-3β or pEGFP(C1) control plasmid, were incubated with 20 nM Calyculin A (# 9902 S, Cell Signaling Technology) for 12 min. Cells were washed twice on ice with cold PBS and after addition of 500 µL lysis buffer (100 mM NaCl, 10 mM Tris, 0.1% IGEPAL, 1 mM EDTA, 1 mM EGTA, 20 nM Calyculin A, 1x cOmplete Mini protease inhibitor cocktail (Sigma), 1 mM DTT, 1 mM MnCl2) cells were scraped from plates, lysed by 10 pushes through an injection needle (21 G, BD) and the insoluble fraction was pelleted by centrifugation (10 min, 10^4 rcf, 4 °C). Supernatants were then subjected to incubation with 1 µM recombinant phosphatase or buffer for 1 h at 30 °C. Next, we subjected samples to immunoprecipitation using α-GFP nanobodies covalently coupled to agarose beads (2 h, 4 °C, obtained from the EMBL PEPcore Core Facility). Beads were then washed three times with lysis buffer and samples were eluted in 1x LDS sample buffer (Thermo Fisher Scientific) by heating to 70 °C for 10 min.
(§2) The samples were then reduced with 25 mM dithiothreitol (10 min at 70 °C) and alkylated with 55 mM chloroacetamide (room temperature, 30 min, in the dark). Proteins were run on a precast 4–12% NuPAGE gel (ThermoFisher Scientific) for about 1 cm to concentrate the sample prior to in-gel tryptic digestion, which was performed according to the standard procedures. The peptides obtained were dried to completeness and resuspended in 12 µL of buffer A (0.1% FA), and 5 µL of sample were injected per MS measurement. The experiment was carried out in three independent replicates.
(§3) The samples were analyzed by LC-MS/MS on a Dionex Ultimate 3000 nano-HPLC coupled online to a Fusion Lumos Tribrid mass spectrometer (Thermo Fisher Scientific). Peptides were delivered to a trap column (75 µm × 2 cm, packed in-house with 5 µm C18 resin; Reprosil PUR AQ, Dr. Maisch) and washed using 0.1% FA at a flow rate of 5 µL/min for 10 min. Subsequently, peptides were transferred to an analytical column (75 µm × 45 cm, packed in-house with 3 µm C18 resin; Reprosil Gold) applying a flow rate of 300 nL/min and separated using a 60 min linear gradient from 4% to 32% LC solvent B (0.1% FA, 5% DMSO in ACN) in LC solvent A (0.1% FA in 5% DMSO). The eluate from the analytical column was sprayed via a stainless steel emitter (Thermo Fisher Scientific) at a source voltage of 2.1 kV into the mass spectrometer. The transfer capillary was heated to 275 °C. The Fusion Lumos was operated in positive ionization mode and data-dependent acquisition (DDA), automatically switching between MS1 and MS2 spectrum acquisition. Full scan MS1 spectra were recorded in the Orbitrap from 360 to 1300 m/z at a resolution of 60k (automatic gain control (AGC) target value of 4e5 charges, maximum injection time (maxIT) of 50 ms). Up to 20 peptide precursors were isolated (isolation window, 1.7 m/z; maximum injection time, 25 ms; and AGC value, 1e5), fragmented by high-energy collision-induced dissociation (HCD) using 30% normalized collision energy (NCE), and analyzed at a resolution of 15k in the Orbitrap. Precursor ions that were singly charged, unassigned, or with charge states >6+ were excluded. The dynamic exclusion duration of fragmented precursor ions was 20 s.
(§4) Peptide and protein identification and LFQ were performed using MaxQuant software (version 1.6.1.0)[64] by searching the data against all canonical protein sequences as annotated in the Swissprot reference database (human proteins only, 20193 entries, downloaded 22 March 2016, internally annotated with PFAM domains) using the embedded search engine Andromeda[65]. The MaxQuant search was performed using two variable modifications; oxidation of methionine and N-terminal protein acetylation. Carbamidomethylation on cysteines was specified as a fixed modification. Trypsin (Trypsin/P) was specified as the proteolytic enzyme with up to two allowed missed cleavage sites.

A further experiment relates to GFP-14-3-3β. As to the kind of experiment: GFP-14-3-3β co-IP with LC-MS/MS, untreated GFP-14-3-3β versus GFP control (14-3-3 interactome). Type of experiment: binding, human. Here is the method:
as §1, §2, §3, §4

The mark [2] stands for this setting: PP1 vs untreated, LFQ intensities, replicates 1-3.
[3] abbreviates: untreated vs GFP, LFQ intensities, replicates 1-3.
Where [4] appears, read: log2 difference, pairwise comparison PP1 vs untreated, label-free quantification, 3 replicates each.
The mark [5] stands for this setting: log2 difference, pairwise comparison untreated vs GFP, label-free quantification, 3 replicates each.
[6] abbreviates: GFP-14-3-3β co-IP LC-MS/MS, PP1 vs untreated, student's t-test, label-free quantification, 3 replicates each.
Setting [7] is: GFP-14-3-3β co-IP LC-MS/MS, untreated vs GFP, student's t-test, label-free quantification, 3 replicates each.
The mark [8] stands for this setting: pairwise comparison PP1 vs untreated, student's t-test, 3 replicates each, LC-MS/MS label-free quantification.
[9] abbreviates: pairwise comparison untreated GFP-14-3-3β vs GFP, student's t-test, 3 replicates each, LC-MS/MS label-free quantification.
The mark [10] stands for this setting: pairwise comparison PP1 vs untreated.
[11] abbreviates: pairwise comparison untreated vs GFP.
[12] abbreviates: PP1 vs untreated, label-free quantification.
[13] abbreviates: untreated vs GFP, label-free quantification.
The mark [14] stands for this setting: PP1 vs untreated, LFQ intensities, 3 replicates each.
Where [15] appears, read: untreated vs GFP, LFQ intensities, 3 replicates each.

For HSP90AB1, in experiment [1] (setting [2]), the “Difference (log2), PP1 vs untreated” value was -0.9521 log2. The “Difference (log2), untreated vs GFP” value with GFP-14-3-3β (setting [3]) stood at 0.1843 log2.

For the substance DDX60, the “Difference (log2), PP1 vs untreated” value in experiment [1] (setting [4]) stood at 1.555. Moreover, the “Difference (log2), untreated vs GFP” value with GFP-14-3-3β (setting [5]) is on record as -0.05993.

On to PSIP1, for which the “Difference (log2), PP1 vs untreated” value in experiment [1] (setting [6]) was -0.2351 log2. In addition, in the experiment on GFP-14-3-3β (setting [7]), the “Difference (log2), untreated vs GFP” value was determined as 1.521 log2.

Regarding TOP2A, in experiment [1] (setting [6]), the “Difference (log2), PP1 vs untreated” value was -0.6623 log2. The “Difference (log2), untreated vs GFP” value with GFP-14-3-3β (setting [7]) stood at 3 log2.

MARK2: the “Difference (log2), PP1 vs untreated” value in experiment [1] (setting [8]) is given as -2.124 log2. Also, the “Difference (log2), untreated vs GFP” value with GFP-14-3-3β (setting [9]) is 5.827 log2.

For the substance PMS2, the “Difference (log2), PP1 vs untreated” value in experiment [1] (setting [2]) was -0.8647 log2. Moreover, in the experiment with GFP-14-3-3β (setting [3]), the “Difference (log2), untreated vs GFP” value was determined as 0.6772 log2.

As for NSUN2, in experiment [1] (setting [4]), the “Difference (log2), PP1 vs untreated” value was 1.3958. The “Difference (log2), untreated vs GFP” value in the experiment with GFP-14-3-3β (setting [5]) is -0.08076.

Consider YWHAG, for which, in experiment [1] (setting [2]), the “Difference (log2), PP1 vs untreated” value is reported as -1.2523 log2. For the same substance, the “Difference (log2), untreated vs GFP” value with GFP-14-3-3β (setting [3]) is 8.569 log2.

As for ECM29, in experiment [1] (setting [6]), the “Difference (log2), PP1 vs untreated” value is reported as -0.2746 log2. Besides, in the experiment with GFP-14-3-3β (setting [7]), the “Difference (log2), untreated vs GFP” value is listed as -0.4278 log2.

On to TUBA1B, for which, in experiment [1] (setting [10]), the “Difference (log2), PP1 vs untreated” value amounted to 0.07589 log2. Moreover, in the experiment with GFP-14-3-3β (setting [11]), the “Difference (log2), untreated vs GFP” value was -0.8319 log2.

For the substance SRGAP1, the “Difference (log2), PP1 vs untreated” value in experiment [1] (setting [8]) is given as -5.178 log2. Further, in the experiment on GFP-14-3-3β (setting [9]), the “Difference (log2), untreated vs GFP” value was found to be 5.319 log2.

Consider IMPDH2, for which, in experiment [1] (setting [12]), the “Difference (log2), PP1 vs untreated” value was determined as 1.157 log2. Moreover, in the experiment with GFP-14-3-3β (setting [13]), the “Difference (log2), untreated vs GFP” value is on record as -1.172 log2.

Turning to CFL1, in experiment [1] (setting [14]), the “Difference (log2), PP1 vs untreated” value worked out at 0.4849 log2. The “Difference (log2), untreated vs GFP” value in the experiment with GFP-14-3-3β (setting [15]) is given as -1.088 log2.

As for TTC27, the “Difference (log2), PP1 vs untreated” value in experiment [1] (setting [14]) worked out at 0.3393 log2. Moreover, the “Difference (log2), untreated vs GFP” value in the experiment on GFP-14-3-3β (setting [15]) is 0.5169 log2.

On to RFC5, for which the “Difference (log2), PP1 vs untreated” value in experiment [1] (setting [4]) came to 1.3455. Also, the “Difference (log2), untreated vs GFP” value in the experiment on GFP-14-3-3β (setting [5]) is given as -0.3031.

AKAP13: in experiment [1] (setting [6]), the “Difference (log2), PP1 vs untreated” value is -0.6453 log2. Moreover, the “Difference (log2), untreated vs GFP” value with GFP-14-3-3β (setting [7]) was 1.366 log2.

Consider HERC2, for which the “Difference (log2), PP1 vs untreated” value in experiment [1] (setting [10]) is given as 0.111 log2. Also, the “Difference (log2), untreated vs GFP” value with GFP-14-3-3β (setting [11]) was -0.06655 log2.

As for LGALS3, the “Difference (log2), PP1 vs untreated” value in experiment [1] (setting [2]) is given as -0.9155 log2. For the same substance, the “Difference (log2), untreated vs GFP” value in the experiment on GFP-14-3-3β (setting [3]) is reported as 0.3389 log2.

Turning to DNAJA2, the “Difference (log2), PP1 vs untreated” value in experiment [1] (setting [14]) came to 0.6145 log2. Moreover, in the experiment with GFP-14-3-3β (setting [15]), the “Difference (log2), untreated vs GFP” value is given as -1.855 log2.

On to CORO1C, for which the “Difference (log2), PP1 vs untreated” value in experiment [1] (setting [14]) was 0.3782 log2. Moreover, the “Difference (log2), untreated vs GFP” value in the experiment on GFP-14-3-3β (setting [15]) is -0.8872 log2.

For XRCC6, the “Difference (log2), PP1 vs untreated” value in experiment [1] (setting [10]) is on record as -0.1289 log2. The “Difference (log2), untreated vs GFP” value with GFP-14-3-3β (setting [11]) is given as -0.01757 log2.

Consider FRYL, for which the “Difference (log2), PP1 vs untreated” value in experiment [1] (setting [8]) is -4.747 log2. Further, the “Difference (log2), untreated vs GFP” value in the experiment with GFP-14-3-3β (setting [9]) amounted to 5.1751 log2.

MGST3: the “Difference (log2), PP1 vs untreated” value in experiment [1] (setting [4]) is 1.301. In addition, in the experiment on GFP-14-3-3β (setting [5]), the “Difference (log2), untreated vs GFP” value was 0.5005.

Take VDAC1: the “Difference (log2), PP1 vs untreated” value in experiment [1] (setting [14]) was found to be 0.6266 log2. The “Difference (log2), untreated vs GFP” value in the experiment with GFP-14-3-3β (setting [15]) was determined as 1.0866 log2.

Consider ZC3H4, for which, in experiment [1] (setting [10]), the “Difference (log2), PP1 vs untreated” value is reported as -0.1033 log2. The “Difference (log2), untreated vs GFP” value with GFP-14-3-3β (setting [11]) is on record as 0.7684 log2.

With AGO2, the “Difference (log2), PP1 vs untreated” value in experiment [1] (setting [12]) was 0.7956 log2. Also, in the experiment on GFP-14-3-3β (setting [13]), the “Difference (log2), untreated vs GFP” value came to 0.05278 log2.

RAD50: the “Difference (log2), PP1 vs untreated” value in experiment [1] (setting [6]) is listed as -0.3723 log2. For the same substance, the “Difference (log2), untreated vs GFP” value with GFP-14-3-3β (setting [7]) was 0.4724 log2.

For the substance ELAVL1, in experiment [1] (setting [14]), the “Difference (log2), PP1 vs untreated” value amounted to 0.612 log2. The “Difference (log2), untreated vs GFP” value in the experiment with GFP-14-3-3β (setting [15]) is 3.578 log2.

On to MYCBP2, for which, in experiment [1] (setting [8]), the “Difference (log2), PP1 vs untreated” value was -3.693 log2. Besides, the “Difference (log2), untreated vs GFP” value in the experiment on GFP-14-3-3β (setting [9]) is given as 7.929 log2.

With KIAA0930, the “Difference (log2), PP1 vs untreated” value in experiment [1] (setting [8]) is recorded as -2.858 log2. Besides, the “Difference (log2), untreated vs GFP” value in the experiment with GFP-14-3-3β (setting [9]) is recorded as 3.752 log2.

For KHDRBS1, the “Difference (log2), PP1 vs untreated” value in experiment [1] (setting [2]) is listed as -0.7597 log2. The “Difference (log2), untreated vs GFP” value in the experiment with GFP-14-3-3β (setting [3]) is listed as -0.7979 log2.

As for MYH9, the “Difference (log2), PP1 vs untreated” value in experiment [1] (setting [8]) is -2.032 log2. Further, the “Difference (log2), untreated vs GFP” value in the experiment on GFP-14-3-3β (setting [9]) came out at 0.3664 log2.
